According to US20260265696A1, “HUMAN IPSC DERIVED AMELOBLASTS AND USES THEREOF” (UNIVERSITY OF WASHINGTON, priority 2021, published 2026):

System: hiPSCs (WTC-11) differentiating to ameloblasts (iAM)
Test: AMBN expression (QRT-PCR) in hiPSC-derived ameloblast (iAM) differentiation, day 10 to day 16, factors removed or added
Assay type: cell-based, human
Details: for expression of AMBN when the factor is removed: factor removed independently from differentiation day 10 to day 16, compared to when all factors are present
Procedure: FIGS. 7A-7E: (FIG. 7A) Schematic of the 16-day differentiation protocol produced, which targets the identified signaling pathways utilizing growth factors and small molecules to transition through the ameloblast developmental trajectory. […] Each study was performed in triplicate, with error bars representing SEM. (FIG. 7C) The efficiency of each pathway activated in the differentiation from day 10 to day 16 were assessed by removing each agonist one at a time or adding FGFR2 mini binder to inhibit the FGFR2 pathway. AMBN expression was assessed in QRT-PCR, and each condition was performed in triplicate. Significance was determined by unpaired Student's t-test; ***p<0.001; ****p<0.0001; Graph error bars are the means±SEM.
To dissect which pathways were essential for the differentiation from day 10 to day 16, the process of elimination was used (FIG. 7C). […] It was hypothesized that the cells in culture secrete enough FGF ligands to saturate the receptors, and any exogenous ligands would have minimal effects. To test this hypothesis, a computationally designed protein was used, FGFR2 mini-binder (FGFR-mb), that specifically binds and inhibits the activity of the FGFR2 (Cao et al., 2022). […] This marks the importance of highly specific AI-designed mini-proteins in analyzing the requirement of signaling pathways in differentiation. It is plausible that temporal preciseness and high penetrance, combined with specificity of designed mini-binders to their targets may partially out-compete in the future genetic perturbations of signaling pathway in iPSC derived differentiation paradigms.
Briefly, hiPSCs (WTC-11 human induced pluripotent stem cells) (Coriell, #GM25256) were seeded on 12-well plates coated with growth factor-reduced Matrigel (Corning, #356231) and cultured in mTeSR1 stem cell medium (StemCell Technologies, #85850) until cells reach confluency with medium changes daily. On the first day of differentiation (deemed Day 0), stem cell media is replaced with ameloblast base media consisted of either EpiCult-C media (StemCell Technologies, #05630) or RPMI 1640 Medium (Thermo, #11875093) mixed with EpiLife (Thermo, #MEPI500CA) at 1:1 ratio, supplemented with 0.1× supplement S7 (Thermo, #S0175), 0.1 uM β-mercaptoethanol (BME) (Sigma, #M7522) and 400 um smoothened agonist (SAG) (Selleckchem, #S7779). At day 3 of differentiation 150 μM of bone morphogenic protein-4 (BMP4) (rndsystems, #314-BP-010) is continuously added daily till day 7. At day 8, the base media is supplemented with 1 uM of BMP-I inhibitor (LDN-193189) (Tocris, #6053), 5 uM of GSK3-Inhibitor (CHIR99021) (Selleckchem, #4423), 500 μM epidermal growth factor (EGF) (rndsystems, #236-EG) and 3.5 μM of Neurotrophin-4 (NT4) (rndsystems, #268-N4). The cultures were then harvested at day 10 at an oral epithelium stage, or extended to day 16 by adding 300 μM BMP4, and 800 nM transforming growth factor beta 1(TGFβ1) (rndsystems, #7754-BH) for the early ameloblast stage at day 16. For testing FGFR signaling requirement for the maturation process we added 50 nM purified FGFR-mb (see below) to the media at day 14 and harvested the samples at day 16 of the differentiation.
RNA was extracted using Trizol (Life Technologies) according to manufacturer's instructions. RNA samples were treated with Turbo DNase (Thermo Fisher Scientific) and quantified using Nanodrop ND-1000. Reverse transcription was performed using iScript cDNA Synthesis Kit (Bio-Rad). […]

Cc1cnc(-c2cnc(NCCNc3ccc(C#N)cn3)nc2-c2ccc(Cl)cc2Cl)[nH]1 [GSKi, 6-[[2-[[4-(2,4-dichlorophenyl)-5-(5-methyl-1H-imidazol-2-yl)-2-pyrimidinyl]amino]ethyl]amino]-3-pyridinecarbonitrile, reference compound]
expression of AMBN when the factor is removed: completely abolished AMBN expression

CN[C@H]1CC[C@H](N(Cc2cccc(-c3ccncc3)c2)C(=O)c2sc3ccccc3c2Cl)CC1 [SAG, 3-chloro-N-[(1r,4r)-4-(methylamino)cyclohexyl]-N-[3-(pyridin-4-yl)benzyl]benzo[b]thiophene-2-carboxamide, reference compound]
expression of AMBN when the factor is removed: significantly reduced to less than half

EGF: epidermal growth factor (NSDSECPLSHDGYCLHDGVCMYIEALDKYACNCVVGYIGERCQYRDLKWWELR; Epidermal growth factor; UniProt P01133 971-1023, looked up)
expression of AMBN when the factor is removed: significantly reduced to less than half

TGFβ1: transforming growth factor beta 1
expression of AMBN when the factor is removed: significantly reduced to less than half

bFGF: exogenous FGF ligand added to the differentiation
AMBN expression on adding bFGF (bFGF added to differentiation day 10 to day 16): no significant effect
